Measured values published in article PMC7397269, “Synthesis and Evaluation of New Coumarin Derivatives as Antioxidant, Antimicrobial, and Anti-Inflammatory Agents” (Molecules, 2020).
In brackets after ≈: the same amount, converted by molar mass. Several values for one entry are separate records, joined by “and”; a condition that tells them apart may be missing. Equal entries are not always repeated.

Key:
[1] = test system: Pseudomonas aeruginosa ATCC 27,953; assay: Agar well diffusion, P. aeruginosa; type: cell-based; settings: ATCC27, 100 μL of 10 mg/mL in DMSO, read-out: diameter of inhibition zone, PA
Method in brief: (§1)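 Bacterial lawns (100 μL of 1 × 10^8 CFU/mL) were spread on nutrient agar and yeast lawns (1 × 10^6 CFU/mL) on Sabouraud dextrose agar. 10 mm wells received 100 μL of compound at 10 mg/mL in DMSO, and plates were incubated 24 h at 37 °C. Inhibition zone diameter (mm) was averaged over triplicates.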

trypsin = assay: Proteinase-inhibitory activity; type: biochemical; settings: 250 µg/mL; mean ± SD (n = 3)
Method in brief: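 Trypsin (0.06 mg per 2 mL, 20 mM Tris-HCl pH 7.4) was preincubated 5 min with test sample at 250 µg/mL, then 0.8% casein was added for 20 min. Perchloric acid stopped the reaction and supernatant absorbance was read at 280 nm. % inhibition is relative to the no-sample control, in triplicate.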

[2] = test system: Candida albicans NRRL Y-477; assay: Agar well diffusion, C. albicans; type: cell-based; settings: NRRLY477, 100 μL of 10 mg/mL in DMSO, read-out: diameter of inhibition zone, CA
Method in brief: as §1

[3] = test system: Bacillus megaterium ATCC 9885; assay: Agar well diffusion, B. megaterium; type: cell-based; settings: Priestia megaterium, ATCC9885, 100 μL of 10 mg/mL in DMSO, read-out: diameter of inhibition zone, BM
Method in brief: as §1

[4] = test system: Staphylococcus aureus ATCC 29213; assay: Agar well diffusion, S. aureus; type: cell-based; settings: ATCC29213, 100 μL of 10 mg/mL in DMSO, read-out: diameter of inhibition zone, SA
Method in brief: as §1

COX-2 = target: T1, COX-2 (Homo sapiens, UniProt P35354); assay: COX-2 inhibition, Cayman assay kit; type: biochemical; settings: for IC50: mean of two determinations; for SI, selectivity index (COX-1/COX-2): ratio of COX-1/COX-2 IC50
T1 construct: purchased Cayman Chemical 701080
T1 sequence (P35354 18-604): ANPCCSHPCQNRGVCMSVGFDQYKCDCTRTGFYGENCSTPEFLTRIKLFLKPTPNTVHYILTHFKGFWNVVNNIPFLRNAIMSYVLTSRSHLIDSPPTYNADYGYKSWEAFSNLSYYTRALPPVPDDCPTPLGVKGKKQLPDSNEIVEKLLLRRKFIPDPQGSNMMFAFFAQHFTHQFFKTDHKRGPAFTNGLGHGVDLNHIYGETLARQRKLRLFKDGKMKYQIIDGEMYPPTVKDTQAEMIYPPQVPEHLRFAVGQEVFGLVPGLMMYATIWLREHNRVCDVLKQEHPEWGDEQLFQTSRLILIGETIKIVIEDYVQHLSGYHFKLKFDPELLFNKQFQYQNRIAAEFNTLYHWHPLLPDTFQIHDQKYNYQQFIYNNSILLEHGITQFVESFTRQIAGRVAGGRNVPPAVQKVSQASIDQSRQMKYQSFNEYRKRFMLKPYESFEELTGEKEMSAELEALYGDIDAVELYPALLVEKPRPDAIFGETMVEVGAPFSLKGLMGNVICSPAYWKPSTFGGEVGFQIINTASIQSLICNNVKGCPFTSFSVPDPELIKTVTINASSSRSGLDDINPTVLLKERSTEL

[5] = test system: Pseudomonas aeruginosa ATCC 27,953; assay: MIC, two-fold serial dilution, P. aeruginosa; type: cell-based; settings: ATCC27, read-out: Minimum inhibitory concentration, PA
Method in brief: (§2)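 Broth tube dilution, two-fold, final 1000–125 μg/mL; inoculum 1 × 10^8 CFU/mL bacteria, 1 × 10^6 CFU/mL yeast (0.1 mL/5 mL); 37 °C, 24 h; MIC read as lowest conc. with no visible growth. Only agar-diffusion actives (IZ > 16 mm) tested.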

[6] = test system: Bacillus subtilis ATCC 6633; assay: Agar well diffusion, B. subtilis; type: cell-based; settings: ATCC6633, 100 μL of 10 mg/mL in DMSO, read-out: diameter of inhibition zone, BS
Method in brief: as §1

[7] = test system: Bacillus subtilis ATCC 6633; assay: MIC, two-fold serial dilution, B. subtilis; type: cell-based; settings: ATCC6633, read-out: Minimum inhibitory concentration, BS
Method in brief: as §2

[8] = test system: Escherichia coli ATCC 2592; assay: Agar well diffusion, E. coli; type: cell-based; settings: ATCC2592, 100 μL of 10 mg/mL in DMSO, read-out: diameter of inhibition zone, EC
Method in brief: as §1

[9] = test system: Candida albicans NRRL Y-477; assay: MIC, two-fold serial dilution, C. albicans; type: cell-based; settings: NRRLY477, read-out: Minimum inhibitory concentration, CA
Method in brief: as §2

Row | SMILES | zone of inhibition at 10000 µg/mL [1] | % Inhibition (proteinase) (trypsin) | zone of inhibition at 10000 µg/mL [2] | zone of inhibition at 10000 µg/mL [3] | zone of inhibition at 10000 µg/mL [4] | IC50 (COX-2) | SI, selectivity index (COX-1/COX-2) (COX-2) | MIC [5] | zone of inhibition at 10000 µg/mL [6] | MIC [7] | zone of inhibition at 10000 µg/mL [8] | MIC [9] | melting point
1 | O=c1oc2ccc(Cl)cc2c(O)c1S(=O)(=O)Nc1ccc(S(=O)(=O)Nc2ncccn2)cc1 [7c, 6-Chloro-4-hydroxy-2-oxo-N-(4-(N-(pyrimidin-2-yl)sulfamoyl)phenyl)-2H-chromene-3-sulfonamide] | 24 mm | 8.9 ± 2.04% | 27 mm | 30 mm | 30 mm | 19.9 µM | 3.12 | 250 µg/mL (≈ 491 µM) | 31 mm | 125 µg/mL (≈ 246 µM) | 30 mm | 125 µg/mL (≈ 246 µM) | 230 to 232 °C
2 | Cc1ccc2oc(=O)c(S(=O)(=O)Nc3ccc(S(=O)(=O)Nc4ncccn4)cc3)c(O)c2c1 [7d, 4-Hydroxy-6-methyl-2-oxo-N-(4-(N-(pyrimidin-2-yl)sulfamoyl)phenyl)-2H-chromene-3-sulfonamide] | 25 mm | 36.84 ± 4.87% | 30 mm | 30 mm | 30 mm | 3.35 µM | 63.96 | 125 µg/mL (≈ 256 µM) | 31 mm | 125 µg/mL (≈ 256 µM) | 28 mm | 125 µg/mL (≈ 256 µM) | 207 to 209 °C
3 | O=c1oc2ccc(Cl)cc2c(O)c1S(=O)(=O)Nc1ccc(S(=O)(=O)Nc2nccs2)cc1 [7e, 6-Chloro-4-hydroxy-2-oxo-N-(4-(N-(thiazol-2-yl)sulfamoyl)phenyl)-2H-chromene-3-sulfonamide] | 22 mm | 19.8 ± 2.54% | 23 mm | 25 mm | 23 mm | 16.1 µM | 1.84 | 1000 µg/mL (≈ 1950 µM) | 25 mm | 500 µg/mL (≈ 973 µM) | 20 mm | 500 µg/mL (≈ 973 µM) | 215 to 217 °C
4 | Cc1ccc2oc(=O)c(S(=O)(=O)Nc3ccc(S(=O)(=O)Nc4nccs4)cc3)c(O)c2c1 [7f, 4-Hydroxy-6-methyl-2-oxo-N-(4-(N-(thiazol-2-yl)sulfamoyl)phenyl)-2H-chromene-3-sulfonamide] | 24 mm | 43.88 ± 5.6% | 24 mm | 27 mm | 24 mm | 10.1 µM | 4.06 | 500 µg/mL (≈ 1010 µM) | 27 mm | 250 µg/mL (≈ 507 µM) | 23 mm | 500 µg/mL (≈ 1010 µM) | 167 to 169 °C
5 | O=c1oc2ccc(Cl)cc2c(O)c1S(=O)(=O)Nc1ccccc1 [8a, 6-Chloro-4-hydroxy-2-oxo-N-phenyl-2H-chromene-3-sulfonamide] | 26 mm | 44.7 ± 8.22% | 29 mm | 29 mm | 26 mm | 8.5 µM | 2.94 | 500 µg/mL (≈ 1420 µM) | 28 mm | 250 µg/mL (≈ 711 µM) | 25 mm | 250 µg/mL (≈ 711 µM) | 337 to 339 °C
6 | Cc1ccc2oc(=O)c(S(=O)(=O)Nc3ccccc3)c(O)c2c1 [8b, 4-Hydroxy-6-methyl-2-oxo-N-phenyl-2H-chromene-3-sulfonamide] | 17 mm | 14.3 ± 2.21% | 20 mm | 24 mm | 20 mm | 13.4 µM | 1.94 | 1000 µg/mL (≈ 3020 µM) | 19 mm | 1000 µg/mL (≈ 3020 µM) | 18 mm | 1000 µg/mL (≈ 3020 µM) | 324 to 325 °C
7 | O=c1oc2ccc(Cl)cc2c(O)c1S(=O)(=O)Nc1ccc(O)cc1 [8c, 6-Chloro-4-hydroxy-N-(4-hydroxyphenyl)-2-oxo-2H-chromene-3-sulfonamide] | 29 mm | 41.69 ± 2.83% | 30 mm | 28 mm | 30 mm | 11.9 µM | 1.3 and 1.29 | 250 µg/mL (≈ 680 µM) | 29 mm | 125 µg/mL (≈ 340 µM) | 27 mm | 125 µg/mL (≈ 340 µM) | 250 to 251 °C
8 | Cc1ccc2oc(=O)c(S(=O)(=O)Nc3ccc(O)cc3)c(O)c2c1 [8d, 4-Hydroxy-N-(4-hydroxyphenyl)-6-methyl-2-oxo-2H-chromene-3-sulfonamide] | 31 mm | 20.15 ± 7.31% | 30 mm | 29 mm | 30 mm | 1.86 µM | 10.5 and 10.45 | 125 µg/mL (≈ 360 µM) | 29 mm | 125 µg/mL (≈ 360 µM) | 31 mm | 125 µg/mL (≈ 360 µM) | 253 to 254 °C
